Experimental data: patent US20260209823A1, “KINASE/PHOSPHATASE SUBSTRATE ANALYSIS AND COMPOSITIONS USING SPECTRALLY ENCODED MICROBEADS” (CZ Biohub SF, LLC, priority 2022, published 2026)
Non-standard residues stand in square brackets, D forms with d. No end group written: not given here. pS = N[C@@H](COP(=O)(O)O)C(=O)O

Test system: Protein phosphatase 1 (PP1)
Experiment: Bead-based multiplexed phosphatase activity assay (pIMAGO detection on spectrally encoded beads)
Format: biochemical
Details: beads incubated with PP1 versus buffer only
Experimental: FIG. 2A-B: Overview and example data from bead-based multiplexed phosphatase activity assay. A) Experimental setup of phosphatase assay. Beads with indicated peptides are incubated with either PP1 (top) or Buffer only (bottom). The beads are washed and the phopsphorylation status of the peptides on the beads is detected using pImago. The beads are analyzed using a microscope capable of exciting beads with UV light and then identifying the spectral code embedded within each bead. B) Preliminary data showing the effect of PP1 phosphatase treatment on the phosphorylation status of the TSFFXGISPIEEEAH peptide (X indicates phosphorylated Serine).
An assay to measure dephosphorylation is performed by incubating the (phospho) substrate peptides, e.g., synthesized directly on the encoded beads, with a phosphatase of interest. […] These images can then be analyzed using open-source image analysis software, e.g., Harink et al., PLOS ONE 2019, to identify the code (and thus the peptide sequence) and amount of phosphorylation associated with each bead. The ratio of phosphorylation detected between a control reaction in the absence of the phosphatase and in the presence of the phosphatase allows determination of how efficiently different peptide sequences are dephosphorylated. […]

pIMAGO signal (phosphorylation status of bead-bound peptide) after PP1 treatment: loss of the signal
Sequence: TSFFXGISPIEEEAH (TSFF[pS]GISPIEEEAH)
